US9833455B2, “Preparation and methods of use for ortho-aryl 5-membered heteroaryl-carboxamide containing multi-targeted kinase inhibitors” (Spacefill Enterprises LLC, priority 2011, dated 2017)
Like-named read-outs stand apart in the source and are kept apart here.

Experiments:
CSF1R = target: T1, CSF1R (Homo sapiens, UniProt P07333); details: cited from earlier work
T1 construct: literature Ambit Biosciences

PI3K-δ = target: T2, PI3K-δ (Homo sapiens, UniProt O00329); experiment: Reaction Biology P33 radiolabeled kinase assay, IC50 and time dependence; assay type: biochemical; details: for IC50: ATP 10 uM, read-out: Compound IC50* PI3K-δ
T2 construct: purchased Reaction Biology Inc (contract assay)
T2 sequence (O00329 whole entry): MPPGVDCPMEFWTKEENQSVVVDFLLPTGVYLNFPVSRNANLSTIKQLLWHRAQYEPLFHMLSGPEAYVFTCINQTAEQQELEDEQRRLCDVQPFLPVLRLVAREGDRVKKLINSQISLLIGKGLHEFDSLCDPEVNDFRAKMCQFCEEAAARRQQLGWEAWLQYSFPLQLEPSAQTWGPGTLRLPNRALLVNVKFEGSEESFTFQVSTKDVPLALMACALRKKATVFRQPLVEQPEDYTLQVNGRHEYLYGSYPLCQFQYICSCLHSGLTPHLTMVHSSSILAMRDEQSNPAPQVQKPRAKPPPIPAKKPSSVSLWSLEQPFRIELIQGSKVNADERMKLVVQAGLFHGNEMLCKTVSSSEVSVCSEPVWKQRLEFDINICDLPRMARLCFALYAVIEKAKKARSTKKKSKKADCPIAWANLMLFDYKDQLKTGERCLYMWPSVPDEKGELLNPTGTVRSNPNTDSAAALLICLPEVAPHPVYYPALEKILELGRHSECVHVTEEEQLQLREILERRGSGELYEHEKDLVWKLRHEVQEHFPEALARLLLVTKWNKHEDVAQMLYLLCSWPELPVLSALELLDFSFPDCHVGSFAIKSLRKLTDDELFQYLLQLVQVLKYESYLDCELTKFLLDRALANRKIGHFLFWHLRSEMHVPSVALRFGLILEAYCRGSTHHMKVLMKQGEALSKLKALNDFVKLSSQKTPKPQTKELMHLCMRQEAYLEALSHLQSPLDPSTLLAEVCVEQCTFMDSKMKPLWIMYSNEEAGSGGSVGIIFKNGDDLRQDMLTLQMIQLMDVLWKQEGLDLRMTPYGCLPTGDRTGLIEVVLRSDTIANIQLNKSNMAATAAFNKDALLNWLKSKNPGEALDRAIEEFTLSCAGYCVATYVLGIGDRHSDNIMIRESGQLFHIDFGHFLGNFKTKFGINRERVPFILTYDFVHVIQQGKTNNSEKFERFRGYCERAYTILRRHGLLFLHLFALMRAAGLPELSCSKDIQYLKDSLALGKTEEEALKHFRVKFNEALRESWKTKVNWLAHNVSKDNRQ
T2 sequence (P27986 whole entry partner): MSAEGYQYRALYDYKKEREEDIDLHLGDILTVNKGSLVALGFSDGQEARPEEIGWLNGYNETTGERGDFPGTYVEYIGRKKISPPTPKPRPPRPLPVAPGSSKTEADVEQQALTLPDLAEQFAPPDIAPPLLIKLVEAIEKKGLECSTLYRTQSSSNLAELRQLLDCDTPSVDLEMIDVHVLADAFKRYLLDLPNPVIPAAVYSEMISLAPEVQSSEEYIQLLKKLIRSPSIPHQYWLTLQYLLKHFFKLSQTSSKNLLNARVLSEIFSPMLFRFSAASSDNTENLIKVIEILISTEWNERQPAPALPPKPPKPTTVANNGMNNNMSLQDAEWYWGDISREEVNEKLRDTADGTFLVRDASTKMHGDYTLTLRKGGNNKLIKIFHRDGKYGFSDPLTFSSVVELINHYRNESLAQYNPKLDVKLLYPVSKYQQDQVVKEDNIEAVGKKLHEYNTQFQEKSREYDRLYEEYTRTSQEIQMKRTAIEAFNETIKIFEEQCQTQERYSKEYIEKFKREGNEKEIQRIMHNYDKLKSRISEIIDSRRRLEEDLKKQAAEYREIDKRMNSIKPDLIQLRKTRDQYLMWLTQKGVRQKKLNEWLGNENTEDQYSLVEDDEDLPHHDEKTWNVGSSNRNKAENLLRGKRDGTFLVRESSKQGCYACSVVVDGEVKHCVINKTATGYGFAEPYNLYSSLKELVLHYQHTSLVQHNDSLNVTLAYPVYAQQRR
Method: (§1) “Inhibiting kinase activity” means to decrease the production of an phosphor-peptide by a particular kinase that can be separated by analytical techniques. For example, a comprehensive platform of kinase, protease, phosphatase and epigenetic assays that utilizes cutting-edge microfluidics and informatics tools to provide accurate and rapid results. Profiling data in this application were determined using these techniques at Nanosyn Inc. IC50 data were provided by Reaction Biology Inc using a P33 radiolabeled kinase assay.
(§2) The observation of potency and isoform selectivity with time-dependency for PI3K-γ appears to be unprecedented in the literature. In addition, these activities combined with inhibition of p38-α, Raf-1, DDR and CSF-1R, would be complimentary and potentially synergistic activities for both the treatment of certain inflammation based conditions and cancers.

TNK1 = target: T3, TNK1 (Homo sapiens, UniProt Q13470); experiment: as above; assay type: biochemical; details: for IC50: ATP 10 uM, read-out: Compound IC50* TNK1
T3 construct: purchased Reaction Biology Inc (contract assay)
T3 sequence (Q13470 1-666): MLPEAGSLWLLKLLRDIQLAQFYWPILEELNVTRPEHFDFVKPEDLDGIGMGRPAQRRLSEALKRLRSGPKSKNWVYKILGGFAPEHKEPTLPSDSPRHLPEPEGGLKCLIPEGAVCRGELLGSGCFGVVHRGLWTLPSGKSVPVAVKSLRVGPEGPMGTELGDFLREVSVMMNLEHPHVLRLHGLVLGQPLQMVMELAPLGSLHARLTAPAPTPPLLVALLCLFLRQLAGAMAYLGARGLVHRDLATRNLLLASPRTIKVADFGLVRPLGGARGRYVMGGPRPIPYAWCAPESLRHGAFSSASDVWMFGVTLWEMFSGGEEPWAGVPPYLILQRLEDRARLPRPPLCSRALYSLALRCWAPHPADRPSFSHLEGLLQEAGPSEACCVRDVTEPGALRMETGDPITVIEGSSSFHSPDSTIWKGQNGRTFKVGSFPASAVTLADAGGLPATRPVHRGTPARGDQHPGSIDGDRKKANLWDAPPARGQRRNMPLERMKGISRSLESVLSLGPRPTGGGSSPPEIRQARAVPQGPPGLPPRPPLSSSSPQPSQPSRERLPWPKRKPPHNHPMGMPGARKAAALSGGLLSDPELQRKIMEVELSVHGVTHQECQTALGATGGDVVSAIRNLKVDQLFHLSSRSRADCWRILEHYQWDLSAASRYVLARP
Method: as §1, §2

P38-α = P38-α (Homo sapiens, UniProt Q16539); experiment: Nanosyn kinase profiling, % inhibition; assay type: biochemical; details: panel of 230 kinases
Method: as §1
(§3) A total of 15 new inhibitors were designed, prepared, and evaluated against a panel of 29 selected kinases in order to explore the applicability, SAR trends, and the tunability of this scaffold that could be imposed but this unique geometry, Table 21. Inhibitors I-1 to 1-12 all retained the 2-CF3-5-(4-F-phenyl) imidazole-4-carboxamide scaffold previously described (Deitrich, 2010), but explored different Hinge-Gatekeeper Motifs (HGM).
(§4) More modest activity for Aurora-A, FLT-1/4, KDR, KIT, PDGFRs was accompanied by better activity for B-Raf mutant and wild-type forms, Modest inhibition of MEK-1, BTK, c-Met, RET, and RON was also observed. […] Moreover, the observed inhibition of MEK-1 with 1-12 and TYK2 with I-6 represents additional activities against kinases for which no type-II inhibitors have been reported to date. […] To further evaluate the scope of inhibition, I-6 was evaluated against a larger panel of 230 kinases, Table-22.

BRAF = target: T4, BRAF (Homo sapiens, UniProt P15056); experiment: Nanosyn kinase profiling, % inhibition; assay type: biochemical; details: panel of 230 kinases
T4 construct: literature Ambit Biosciences
T4 sequence (P15056 whole entry): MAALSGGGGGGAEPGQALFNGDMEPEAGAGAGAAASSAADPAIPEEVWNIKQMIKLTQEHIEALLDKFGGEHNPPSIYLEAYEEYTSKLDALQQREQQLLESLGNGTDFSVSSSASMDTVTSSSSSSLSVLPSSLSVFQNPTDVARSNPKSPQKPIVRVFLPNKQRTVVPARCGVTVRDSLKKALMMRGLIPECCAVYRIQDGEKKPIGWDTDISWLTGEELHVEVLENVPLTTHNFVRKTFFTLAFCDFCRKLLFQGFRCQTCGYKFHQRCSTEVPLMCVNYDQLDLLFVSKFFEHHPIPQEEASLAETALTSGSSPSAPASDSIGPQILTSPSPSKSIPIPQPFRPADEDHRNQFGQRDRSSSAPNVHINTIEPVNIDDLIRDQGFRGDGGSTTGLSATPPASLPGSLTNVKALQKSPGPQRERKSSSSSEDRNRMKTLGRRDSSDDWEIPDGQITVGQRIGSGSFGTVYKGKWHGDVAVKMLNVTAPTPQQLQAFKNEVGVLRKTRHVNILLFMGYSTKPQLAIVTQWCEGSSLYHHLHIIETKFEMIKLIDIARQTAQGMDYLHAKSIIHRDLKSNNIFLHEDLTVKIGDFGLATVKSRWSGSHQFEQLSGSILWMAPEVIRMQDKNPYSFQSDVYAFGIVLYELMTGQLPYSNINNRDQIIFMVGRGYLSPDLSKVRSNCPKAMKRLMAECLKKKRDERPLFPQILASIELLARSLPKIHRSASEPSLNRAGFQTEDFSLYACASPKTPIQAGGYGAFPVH
Method: as §1, §3, §4

PDGFR-β = PDGFR-β (Homo sapiens, UniProt P09619); experiment: Nanosyn kinase profiling, % inhibition; assay type: biochemical; details: panel of 230 kinases
Sequence of PDGFR-β (P09619 33-1106): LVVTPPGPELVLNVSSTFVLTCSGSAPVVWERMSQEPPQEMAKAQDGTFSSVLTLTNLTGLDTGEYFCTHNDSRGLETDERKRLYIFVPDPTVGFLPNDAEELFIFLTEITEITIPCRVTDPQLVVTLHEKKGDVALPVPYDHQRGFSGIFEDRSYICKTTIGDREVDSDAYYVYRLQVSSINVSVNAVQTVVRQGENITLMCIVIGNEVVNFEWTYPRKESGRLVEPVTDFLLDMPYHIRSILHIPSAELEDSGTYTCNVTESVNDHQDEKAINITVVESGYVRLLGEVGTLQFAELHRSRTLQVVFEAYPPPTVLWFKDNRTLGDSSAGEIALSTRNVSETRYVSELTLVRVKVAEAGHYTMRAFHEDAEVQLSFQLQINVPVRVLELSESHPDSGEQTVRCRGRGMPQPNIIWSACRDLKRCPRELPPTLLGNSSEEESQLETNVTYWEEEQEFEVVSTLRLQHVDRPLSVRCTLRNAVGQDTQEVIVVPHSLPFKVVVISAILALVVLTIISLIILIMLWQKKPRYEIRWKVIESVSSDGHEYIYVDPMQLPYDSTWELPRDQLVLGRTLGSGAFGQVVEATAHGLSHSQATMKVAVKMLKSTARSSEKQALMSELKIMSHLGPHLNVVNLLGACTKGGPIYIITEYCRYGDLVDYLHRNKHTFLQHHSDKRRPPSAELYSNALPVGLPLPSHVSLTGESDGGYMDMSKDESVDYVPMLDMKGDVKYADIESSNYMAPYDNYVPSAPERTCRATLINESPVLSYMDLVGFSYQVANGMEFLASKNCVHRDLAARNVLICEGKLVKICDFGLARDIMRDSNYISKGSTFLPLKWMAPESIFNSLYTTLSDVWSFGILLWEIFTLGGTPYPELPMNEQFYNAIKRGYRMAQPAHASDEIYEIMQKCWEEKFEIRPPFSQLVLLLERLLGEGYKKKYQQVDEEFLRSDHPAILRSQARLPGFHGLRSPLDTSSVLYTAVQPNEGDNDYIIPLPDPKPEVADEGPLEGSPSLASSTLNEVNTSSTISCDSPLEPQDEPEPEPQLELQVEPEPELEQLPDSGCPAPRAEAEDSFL
Method: as §1, §3, §4

MET = MET (Homo sapiens, UniProt P08581); experiment: Nanosyn kinase profiling, % inhibition; assay type: biochemical; details: panel of 230 kinases
Method: as §1, §3, §4

TYK2 = TYK2 (Homo sapiens, UniProt P29597); experiment: Nanosyn kinase profiling, % inhibition; assay type: biochemical; details: panel of 230 kinases
Sequence of TYK2 (P29597 whole entry): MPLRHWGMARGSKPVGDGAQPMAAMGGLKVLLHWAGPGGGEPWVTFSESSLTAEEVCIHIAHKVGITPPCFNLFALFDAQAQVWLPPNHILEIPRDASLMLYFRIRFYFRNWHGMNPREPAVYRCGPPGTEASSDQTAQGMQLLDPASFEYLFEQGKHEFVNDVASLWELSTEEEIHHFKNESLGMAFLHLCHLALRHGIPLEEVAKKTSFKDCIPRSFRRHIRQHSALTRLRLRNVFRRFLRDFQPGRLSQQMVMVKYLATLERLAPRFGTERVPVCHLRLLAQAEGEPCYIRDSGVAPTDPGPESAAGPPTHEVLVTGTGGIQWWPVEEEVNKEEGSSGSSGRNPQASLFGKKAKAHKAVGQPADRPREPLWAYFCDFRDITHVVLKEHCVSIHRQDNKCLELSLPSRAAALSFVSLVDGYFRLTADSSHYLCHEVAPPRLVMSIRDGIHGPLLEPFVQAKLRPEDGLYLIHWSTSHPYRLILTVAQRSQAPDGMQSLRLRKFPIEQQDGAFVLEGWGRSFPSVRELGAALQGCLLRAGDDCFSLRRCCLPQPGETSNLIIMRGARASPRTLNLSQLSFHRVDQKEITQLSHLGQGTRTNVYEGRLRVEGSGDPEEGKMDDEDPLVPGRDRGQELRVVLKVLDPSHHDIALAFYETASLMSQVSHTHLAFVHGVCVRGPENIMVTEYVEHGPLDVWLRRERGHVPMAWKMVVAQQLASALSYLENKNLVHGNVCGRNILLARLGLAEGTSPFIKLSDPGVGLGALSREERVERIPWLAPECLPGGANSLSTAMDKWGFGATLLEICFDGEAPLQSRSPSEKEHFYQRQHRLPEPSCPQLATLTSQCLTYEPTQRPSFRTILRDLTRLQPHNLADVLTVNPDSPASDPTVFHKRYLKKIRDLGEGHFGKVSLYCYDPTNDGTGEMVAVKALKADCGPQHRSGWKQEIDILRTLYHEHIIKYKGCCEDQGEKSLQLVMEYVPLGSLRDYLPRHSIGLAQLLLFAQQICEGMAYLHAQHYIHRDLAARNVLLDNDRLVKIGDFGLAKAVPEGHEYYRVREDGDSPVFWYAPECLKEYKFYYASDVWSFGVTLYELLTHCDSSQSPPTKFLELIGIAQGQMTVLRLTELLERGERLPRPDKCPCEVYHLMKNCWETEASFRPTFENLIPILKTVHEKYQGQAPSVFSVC
Method: as §1, §3, §4

RON = RON (Homo sapiens, UniProt Q04912); experiment: Nanosyn kinase profiling, % inhibition; assay type: biochemical; details: panel of 230 kinases
Method: as §1, §3, §4

PDGFR-α = PDGFR-α (Homo sapiens, UniProt P16234); experiment: Nanosyn kinase profiling, % inhibition; assay type: biochemical; details: panel of 230 kinases
Method: as §1, §3, §4

KDR = KDR (Homo sapiens, UniProt P35968); experiment: Nanosyn kinase profiling, % inhibition; assay type: biochemical; details: panel of 230 kinases
Method: as §1, §3, §4

RET = RET (Homo sapiens, UniProt P07949); experiment: Nanosyn kinase profiling, % inhibition; assay type: biochemical; details: panel of 230 kinases
Method: as §1, §3, §4

FMS = FMS (Homo sapiens, UniProt P07333); experiment: Nanosyn kinase profiling, % inhibition; assay type: biochemical; details: panel of 230 kinases
Method: as §1, §3, §4

Cc1ccc(NC(=O)c2[nH]c(C(F)(F)F)nc2-c2ccc(F)cc2)cc1Nc1ccc2ncn(C)c(=O)c2c1 [KIN-035]
improved potency for CSF1R, KIN-032 vs KIN-035 (4-fluoro-substituent) (CSF1R): 70 fold

Cc1ccc(NC(=O)c2nc(S(C)(=O)=O)[nH]c2-c2ccc(F)cc2)cc1Nc1nccc(-c2cccnc2)n1 [Inhibitor I-14, 3-(4-(pyridin-3-yl)-pyrimidinyl-2-yl)amino-4-methyl-analine, 5-(4-Fluorophenyl)-2-(methylsulfonyl)-1H-imidazole-4-carboxamide]
Time Dependence Observed? PI3K-δ (PI3K-δ; 15 vs 60 Min preincubation): Yes | IC50 (PI3K-δ; preincubation 15 Min): 3180 nM | IC50 (PI3K-δ; preincubation 60 Min): 1120 nM | Time Dependence Observed? TNK1 (TNK1; 15 vs 60 Min preincubation): No | IC50 (TNK1; preincubation 15 Min): 210 nM | IC50 (TNK1; preincubation 60 Min): 241 nM

CNC(=O)c1cc(Oc2ccc(NC(=O)c3nc(C(F)(F)F)[nH]c3-c3ccc(F)cc3)cc2)ccn1 [Inhibitor I-6, 4-(4-{[5-(4-Fluoro-phenyl)-2-trifluoromethyl-3H-imidazole-4-carbonyl]-amino}-phenoxy)-pyridine-2-carboxylic acid methylamide]
inhibition at 5 µM (P38-α): ≥ 50% | inhibition at 5 µM (BRAF): ≥ 50% | inhibition at 5 µM (PDGFR-β): ≥ 50% | inhibition at 5 µM (MET): ≥ 50% | inhibition at 5 µM (TYK2): ≥ 50% | inhibition at 5 µM (RON): ≥ 50% | inhibition at 5 µM (PDGFR-α): ≥ 50% | inhibition at 5 µM (KDR): ≥ 50% | inhibition at 5 µM (RET): ≥ 50% | inhibition at 5 µM (FMS): ≥ 50%
